How the values were obtained:
Assay in all cases: radiometric filter-binding kinase assay, Kinase HotSpot
Conditions in all cases: compound 0.5 µM; ATP 10 µM
[1] = molecular target: ACVRL1 (human) (UniProt P37023)
[2] = molecular target: BTK (human) (UniProt Q06187)
[3] = molecular target: CAMK2A (human) (UniProt Q9UQM7)
[4] = molecular target: CLK3 (human) (UniProt P49761)
[5] = molecular target: CSNK1D (human) (UniProt P48730)
[6] = molecular target: CSNK1E (human) (UniProt P49674)
[7] = molecular target: CSNK1G1 (human) (UniProt Q9HCP0)
[8] = molecular target: CSNK1G3 (human) (UniProt Q9Y6M4)
[9] = molecular target: DDR2 (human) (UniProt Q16832)
[10] = molecular target: DYRK3 (human) (UniProt O43781)
[11] = molecular target: EPHA1 (human) (UniProt P21709)
[12] = molecular target: EPHA8 (human) (UniProt P29322)
[13] = molecular target: EPHB3 (human) (UniProt P54753)
[14] = molecular target: FGFR2 (human) (UniProt P21802)
[15] = molecular target: FGFR3 (human) (UniProt P22607)
[16] = molecular target: GSK3A (human) (UniProt P49840)
[17] = molecular target: HCK (human) (UniProt P08631)
[18] = molecular target: JAK2 JH1 JH2 (human) (UniProt O60674)
[19] = molecular target: MAP3K3 (human) (UniProt Q99759)
[20] = molecular target: MAP4K2 (human) (UniProt Q12851)
[21] = molecular target: MARK2 (human) (UniProt Q7KZI7)
[22] = molecular target: MATK (human) (UniProt P42679)
[23] = molecular target: MERTK (human) (UniProt Q12866)
[24] = molecular target: MST1R (human) (UniProt Q04912)
[25] = molecular target: MUSK (human) (UniProt O15146)
[26] = molecular target: NEK11 (human) (UniProt Q8NG66)
[27] = molecular target: NEK4 (human) (UniProt P51957)
[28] = molecular target: NTRK2 (human) (UniProt Q16620)
[29] = molecular target: NUAK1 (human) (UniProt O60285)
[30] = molecular target: PHKG1 (human) (UniProt Q16816)
[31] = molecular target: PIM1 (human) (UniProt P11309)
[32] = molecular target: PIM3 (human) (UniProt Q86V86)
[33] = molecular target: PLK1 (human) (UniProt P53350)
[34] = molecular target: PLK2 (human) (UniProt Q9NYY3)
[35] = molecular target: PRKX (human) (UniProt P51817)
[36] = molecular target: SGK3 (human) (UniProt Q96BR1)
[37] = molecular target: SIK2 (human) (UniProt Q9H0K1)
[38] = molecular target: STK11 (human) (UniProt Q15831)
[39] = molecular target: STK17A (human) (UniProt Q9UEE5)
[40] = molecular target: TSSK2 (human) (UniProt Q96PF2)
[41] = molecular target: TYRO3 (human) (UniProt Q06418)
[42] = molecular target: WNK2 (human) (UniProt Q9Y3S1)

Chain of BTK (human) (Q06187 whole entry, looked up): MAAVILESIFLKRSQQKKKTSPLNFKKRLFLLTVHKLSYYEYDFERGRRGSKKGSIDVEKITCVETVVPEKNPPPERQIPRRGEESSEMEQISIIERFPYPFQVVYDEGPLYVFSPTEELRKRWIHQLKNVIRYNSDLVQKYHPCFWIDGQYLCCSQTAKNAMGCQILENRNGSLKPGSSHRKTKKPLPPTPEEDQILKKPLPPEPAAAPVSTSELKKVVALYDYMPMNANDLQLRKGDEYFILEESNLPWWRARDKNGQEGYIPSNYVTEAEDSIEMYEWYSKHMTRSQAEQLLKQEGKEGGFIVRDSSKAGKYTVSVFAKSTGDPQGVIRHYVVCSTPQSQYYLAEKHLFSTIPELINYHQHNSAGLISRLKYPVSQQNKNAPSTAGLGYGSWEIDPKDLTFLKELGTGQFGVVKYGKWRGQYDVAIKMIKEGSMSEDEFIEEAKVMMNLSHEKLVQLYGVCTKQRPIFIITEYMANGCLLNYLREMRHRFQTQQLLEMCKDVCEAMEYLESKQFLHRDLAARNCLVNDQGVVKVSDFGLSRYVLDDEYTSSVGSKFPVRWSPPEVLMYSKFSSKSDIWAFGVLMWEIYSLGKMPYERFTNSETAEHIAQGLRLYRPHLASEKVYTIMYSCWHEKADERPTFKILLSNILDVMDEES
Chain of JAK2 JH1 JH2 (human) (O60674 whole entry, looked up): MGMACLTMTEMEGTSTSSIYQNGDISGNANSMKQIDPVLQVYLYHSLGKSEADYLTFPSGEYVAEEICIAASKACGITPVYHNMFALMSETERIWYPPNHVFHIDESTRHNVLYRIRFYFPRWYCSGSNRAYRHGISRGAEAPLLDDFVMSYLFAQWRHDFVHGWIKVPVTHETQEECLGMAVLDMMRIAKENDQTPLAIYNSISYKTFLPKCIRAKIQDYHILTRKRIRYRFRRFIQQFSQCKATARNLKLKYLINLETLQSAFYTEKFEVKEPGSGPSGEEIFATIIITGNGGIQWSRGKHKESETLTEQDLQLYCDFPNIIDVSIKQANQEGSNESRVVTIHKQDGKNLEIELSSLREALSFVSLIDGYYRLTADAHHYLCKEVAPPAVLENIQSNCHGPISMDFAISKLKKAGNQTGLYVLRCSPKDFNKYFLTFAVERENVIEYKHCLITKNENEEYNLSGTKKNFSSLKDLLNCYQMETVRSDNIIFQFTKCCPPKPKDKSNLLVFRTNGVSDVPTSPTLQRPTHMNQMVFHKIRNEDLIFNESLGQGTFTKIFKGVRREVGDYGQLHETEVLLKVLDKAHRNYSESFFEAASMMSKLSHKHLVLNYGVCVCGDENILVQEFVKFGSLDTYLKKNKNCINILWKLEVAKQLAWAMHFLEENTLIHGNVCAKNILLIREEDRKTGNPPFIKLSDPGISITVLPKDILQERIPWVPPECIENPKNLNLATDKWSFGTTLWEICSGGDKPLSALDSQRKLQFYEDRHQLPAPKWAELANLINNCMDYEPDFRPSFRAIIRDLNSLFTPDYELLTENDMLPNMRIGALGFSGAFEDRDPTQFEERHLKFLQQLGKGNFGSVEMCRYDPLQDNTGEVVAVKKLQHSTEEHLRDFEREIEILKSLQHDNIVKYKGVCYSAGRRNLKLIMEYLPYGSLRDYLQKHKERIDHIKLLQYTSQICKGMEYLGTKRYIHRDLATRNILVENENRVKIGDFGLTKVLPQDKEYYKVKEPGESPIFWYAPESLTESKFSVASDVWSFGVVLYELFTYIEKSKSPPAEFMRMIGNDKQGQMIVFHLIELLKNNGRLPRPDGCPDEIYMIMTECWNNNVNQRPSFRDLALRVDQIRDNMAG
Chain of PIM1 (human) (P11309 whole entry, looked up): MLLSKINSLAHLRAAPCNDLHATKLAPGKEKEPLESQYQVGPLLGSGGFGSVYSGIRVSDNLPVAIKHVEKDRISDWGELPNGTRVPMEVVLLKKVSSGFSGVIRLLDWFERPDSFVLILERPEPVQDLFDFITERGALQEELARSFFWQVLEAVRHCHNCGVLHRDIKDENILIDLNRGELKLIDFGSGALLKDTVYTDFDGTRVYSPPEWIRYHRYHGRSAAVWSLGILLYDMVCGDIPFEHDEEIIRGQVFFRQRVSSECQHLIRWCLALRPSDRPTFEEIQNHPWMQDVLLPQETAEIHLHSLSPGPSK
Chain of FGFR2 (human) (P21802 whole entry, looked up): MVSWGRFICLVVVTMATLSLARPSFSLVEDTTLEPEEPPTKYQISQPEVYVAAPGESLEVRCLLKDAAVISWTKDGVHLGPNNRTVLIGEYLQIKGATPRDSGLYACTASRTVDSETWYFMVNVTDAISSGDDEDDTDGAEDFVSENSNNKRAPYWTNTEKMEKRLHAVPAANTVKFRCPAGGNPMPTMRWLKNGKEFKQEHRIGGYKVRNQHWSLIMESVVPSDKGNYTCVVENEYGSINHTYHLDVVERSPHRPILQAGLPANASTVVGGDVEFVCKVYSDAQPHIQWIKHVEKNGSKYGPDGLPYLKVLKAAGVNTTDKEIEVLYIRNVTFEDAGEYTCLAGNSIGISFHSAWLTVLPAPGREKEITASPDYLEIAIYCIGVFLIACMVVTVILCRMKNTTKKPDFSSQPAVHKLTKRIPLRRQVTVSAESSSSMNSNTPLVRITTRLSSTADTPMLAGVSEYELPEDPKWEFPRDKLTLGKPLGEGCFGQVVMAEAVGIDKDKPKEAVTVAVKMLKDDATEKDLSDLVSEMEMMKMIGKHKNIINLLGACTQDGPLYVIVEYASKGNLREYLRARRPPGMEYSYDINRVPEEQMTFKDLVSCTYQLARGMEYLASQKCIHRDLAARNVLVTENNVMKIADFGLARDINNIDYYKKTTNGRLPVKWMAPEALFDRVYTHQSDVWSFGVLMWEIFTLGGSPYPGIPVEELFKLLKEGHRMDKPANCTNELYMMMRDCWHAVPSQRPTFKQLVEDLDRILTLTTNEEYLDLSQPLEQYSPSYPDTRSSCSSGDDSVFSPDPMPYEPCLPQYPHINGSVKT
Chain of STK11 (human) (Q15831 whole entry, looked up): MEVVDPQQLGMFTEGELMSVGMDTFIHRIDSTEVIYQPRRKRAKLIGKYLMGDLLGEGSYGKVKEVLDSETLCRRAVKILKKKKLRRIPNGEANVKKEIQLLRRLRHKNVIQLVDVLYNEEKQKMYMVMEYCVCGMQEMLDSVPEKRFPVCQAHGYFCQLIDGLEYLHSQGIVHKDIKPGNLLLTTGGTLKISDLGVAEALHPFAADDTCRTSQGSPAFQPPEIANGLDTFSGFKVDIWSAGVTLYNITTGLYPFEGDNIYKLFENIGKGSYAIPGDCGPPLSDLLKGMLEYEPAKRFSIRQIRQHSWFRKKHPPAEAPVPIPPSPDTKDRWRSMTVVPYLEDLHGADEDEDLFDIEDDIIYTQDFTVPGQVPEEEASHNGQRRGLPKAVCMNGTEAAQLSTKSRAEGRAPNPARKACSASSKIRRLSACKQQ
Chain of CAMK2A (human) (Q9UQM7 whole entry, looked up): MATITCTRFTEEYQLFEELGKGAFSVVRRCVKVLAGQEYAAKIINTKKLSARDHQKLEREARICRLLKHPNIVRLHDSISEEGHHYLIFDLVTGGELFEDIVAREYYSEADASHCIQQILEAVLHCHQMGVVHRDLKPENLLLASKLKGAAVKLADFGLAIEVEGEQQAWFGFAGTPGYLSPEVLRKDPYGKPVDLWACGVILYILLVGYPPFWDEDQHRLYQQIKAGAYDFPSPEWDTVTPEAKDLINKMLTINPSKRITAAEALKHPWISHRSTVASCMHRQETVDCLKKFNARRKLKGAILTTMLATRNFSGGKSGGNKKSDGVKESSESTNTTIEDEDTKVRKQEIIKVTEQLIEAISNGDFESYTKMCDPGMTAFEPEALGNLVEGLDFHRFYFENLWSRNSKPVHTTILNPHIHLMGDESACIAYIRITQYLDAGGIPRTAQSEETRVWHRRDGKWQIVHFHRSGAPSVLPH
Chain of STK17A (human) (Q9UEE5 whole entry, looked up): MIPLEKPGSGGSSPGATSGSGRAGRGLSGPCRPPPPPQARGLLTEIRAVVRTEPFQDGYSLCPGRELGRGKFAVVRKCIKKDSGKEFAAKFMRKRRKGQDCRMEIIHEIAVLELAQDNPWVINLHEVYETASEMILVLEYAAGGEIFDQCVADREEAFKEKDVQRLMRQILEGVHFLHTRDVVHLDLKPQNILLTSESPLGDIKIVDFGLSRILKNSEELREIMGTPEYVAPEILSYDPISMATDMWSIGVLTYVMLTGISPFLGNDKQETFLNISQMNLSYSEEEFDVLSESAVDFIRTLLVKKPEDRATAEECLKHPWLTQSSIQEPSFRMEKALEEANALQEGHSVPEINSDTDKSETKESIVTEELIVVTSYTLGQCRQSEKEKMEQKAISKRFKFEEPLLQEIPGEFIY
Chain of CSNK1G1 (human) (Q9HCP0 whole entry, looked up): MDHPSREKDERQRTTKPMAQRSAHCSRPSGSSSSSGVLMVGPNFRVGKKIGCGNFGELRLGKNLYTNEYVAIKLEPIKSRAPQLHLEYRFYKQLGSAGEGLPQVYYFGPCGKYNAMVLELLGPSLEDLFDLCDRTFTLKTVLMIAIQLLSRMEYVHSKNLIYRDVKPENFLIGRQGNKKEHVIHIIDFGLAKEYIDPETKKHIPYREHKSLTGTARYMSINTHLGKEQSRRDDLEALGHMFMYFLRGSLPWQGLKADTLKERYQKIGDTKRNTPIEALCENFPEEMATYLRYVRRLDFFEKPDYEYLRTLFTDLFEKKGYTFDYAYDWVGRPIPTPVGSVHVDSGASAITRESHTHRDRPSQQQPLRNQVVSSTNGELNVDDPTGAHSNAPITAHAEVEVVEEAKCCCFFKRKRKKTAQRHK

CC(=O)c1ccc(N2CCOCC2)cc1O
residual activity [1]: 103%
residual activity [2]: 108%
residual activity [3]: 104%
residual activity [4]: 101%
residual activity [5]: 100%
residual activity [6]: 96.2%
residual activity [7]: 91.8%
residual activity [8]: 101%
residual activity [9]: 104%
residual activity [10]: 93.9%
residual activity [11]: 94%
residual activity [12]: 101%
residual activity [13]: 92.3%
residual activity [14]: 108%
residual activity [15]: 105%
residual activity [16]: 101%
residual activity [17]: 116%
residual activity [18]: 93.6%
residual activity [19]: 108%
residual activity [20]: 116%
residual activity [21]: 107%
residual activity [22]: 92.1%
residual activity [23]: 101%
residual activity [24]: 104%
residual activity [25]: 93.9%
residual activity [26]: 98.6%
residual activity [27]: 103%
residual activity [28]: 92.1%
residual activity [29]: 92.8%
residual activity [30]: 96.5%
residual activity [31]: 97.2%
residual activity [32]: 115%
residual activity [33]: 94.3%
residual activity [34]: 104%
residual activity [35]: 105%
residual activity [36]: 105%
residual activity [37]: 87%
residual activity [38]: 103%
residual activity [39]: 95.9%
residual activity [40]: 102%
residual activity [41]: 89.1%
residual activity [42]: 101%

c1ccc(-c2n[nH]cc2-c2ccnc3ccccc23)nc1
residual activity [1]: 102%
residual activity [2]: 104%
residual activity [3]: 102%
residual activity [4]: 105%
residual activity [5]: 44.2%
residual activity [6]: 53.9%
residual activity [7]: 92.2%
residual activity [8]: 96%
residual activity [9]: 95.1%
residual activity [10]: 104%
residual activity [11]: 97.7%
residual activity [12]: 94.6%
residual activity [13]: 97.1%
residual activity [14]: 110%
residual activity [15]: 97.4%
residual activity [16]: 95.1%
residual activity [17]: 98.5%
residual activity [18]: 107%
residual activity [19]: 79.4%
residual activity [20]: 103%
residual activity [21]: 102%
residual activity [22]: 87.9%
residual activity [23]: 92.6%
residual activity [24]: 99.9%
residual activity [25]: 93.4%
residual activity [26]: 91.8%
residual activity [27]: 95.8%
residual activity [28]: 112%
residual activity [29]: 95.5%
residual activity [30]: 94.2%
residual activity [31]: 107%
residual activity [32]: 90.6%
residual activity [33]: 102%
residual activity [34]: 98.9%
residual activity [35]: 102%
residual activity [36]: 97.4%
residual activity [37]: 94.8%
residual activity [38]: 82.6%
residual activity [39]: 117%
residual activity [40]: 83.5%
residual activity [41]: 124%
residual activity [42]: 49.2%

Reference: the kinase profiling compilation of Christmann-Franck et al. (2016)
